Assay results published in patent US9579318B2, “Histamine 4 receptor partial agonists, inverse agonists or antagonists for use in treating non-autoimmune uveitis” (UCL BUSINESS PLC, priority 2013, dated 2017).

How the values were obtained:
[1] = test system: experimental autoimmune uveitis (EAU) in C57B1/6 mice; assay: Experimental autoimmune uveitis (EAU) model, therapeutic treatment, histological scoring; type: in vivo; details: EAU C57B1/6 mice, disease established, 5 doses, eyes harvested day 19 (FIG. 1)
Source text: Whilst CD4+T cells are crucial for disease induction, it is now established in the literature (see Dick et al 2012) that tissue resident cells (microglia, macrophages) and infiltrating inflammatory cells (CD11b+granulocytes) contribute to the perpetuation of the inflammation in the C57BL/6 mouse, where evidence of retinal inflammation can be observed up to day 56 post immunization. In our study EAU was induced in C57B1/6 mice using subcutaneous administration of IRBP peptide emulsified in complete Freund's adjuvant (CFA) supplemented with […] mycobacterium, and intraperitoneal immunisation with Pertussis toxin. Clinical signs of EAU disease were monitored using non-invasive retinal fundus imaging (TEFI) until signs of retinal inflammatory disease were observed (usually by day 14). At this point mice were divided into treatment groups. A total of 45 mice were used, with groups as follows: CFA controls n=4; EAU controls n=6; JNJ 7777120 16 mg/kg n=5; 994 10 mg/kg n=5; 994 30 mg/kg n=5; 994 100 mg/kg n=5; 1006 10 mg/kg n=5; 1006 30 mg/kg n=5; 1006 100 mg/kg n=5. Each treatment group of mice received 5 intraperitoneal doses of compound, once per day, until day 19 when eyes were harvested. At this point eyes were processed and fixed, and histological sections were prepared. Histological scoring by light microscopy was done according to established methods (Gegg et al, 2005) where a score of 1.0 reflects inflammatory cells present in the vitreous cavity but not throughout the retinal layers, and the photoreceptor layer is as normal. A score of 2.0 reflects cells within the outer retinal layers, with some granuloma formation. A score of 3.0 reflects cells within the photoreceptor layer, some retinal folding, a focal loss of photoreceptor cells. […] This is an impressive effect since disease was already established. In most treatment studies mice are pretreated with drug prior to inducing EAU.

[2] = test system: endotoxin induced uveitis (EIU) in mice; assay: Endotoxin induced uveitis (EIU) model, CD11b+ cells in retina by flow cytometry; type: in vivo; details: pretreated with 0.1, 1.0 and 10.0 mM eyedrops twice daily for 3 days before LPS, eyes harvested 24 hours later (FIG. 2)
Procedure: EIU is a more acute form of anterior uveitis, induced by intraperitoneal immunization with LPS (endotoxin), and clinical signs of uveitis can be observed within 24-48 hours post immunisation. Due to the narrow time frame of disease, in our study mice (n=2 per group) were pretreated with three different concentrations of JNJ777120 compound (0.1, 1.0 and 10.0 mM) given twice daily as eyedrops for 3 days prior to inducing EIU, and eyes harvested 24 hours later. In this study, retinas were dissected from each eye and single cell suspensions prepared for staining with CD11b (to stain for granulocytes), and analysed by flow cytometry, Each eye was kept separate, so results are shown as means of 4 retinae in each group, in comparison with 6 eyes from 3 EIU non-treated control mice.

For CN1CCN(C(=O)c2cc3cc(Cl)ccc3[nH]2)CC1 [JNJ7777120, 1-[(5-chloro-1H-indol-2-yl)carbonyl]-4-methylpiperazine], the “histological scores (retinal inflammation, light microscopy)” value (from here on “histological scores”) ([1]; 16 mg/kg i.p. once per day) was “reduced the histological scores to control levels” and the “levels of infiltrating granulocytes (numbers of CD11b+ cells in retina)” value [2] was “significantly decreased the levels of infiltrating granulocytes”.

Cc1ccc(CNc2cc(N3CCN(C)CC3)nc(N)n2)cc1.O=C(O)/C=C\C(=O)O [compound 994] was tested, and the “histological scores” value ([1]; 100 mg/kg i.p. once per day) was “reduced the histological scores to control levels”.

With CN1CCN(c2cc(NCc3c(Cl)cccc3Cl)nc(N)n2)CC1.O=C(O)/C=C\C(=O)O [compound 1006] the “histological scores” value ([1]; 30 mg/kg i.p. once per day) was “reduced the histological scores to control levels”.
